{"source": "paper PMC6268972", "about": "“Antiproliferative, Antimicrobial and Apoptosis Inducing Effects of Compounds Isolated from Inula viscosa” (Molecules, 2012)", "key": {"Escherichia coli": {"test_system": "Escherichia coli", "experiment": "Microtiter plate dilution MIC, E. coli", "assay_type": "cell-based", "settings": "Escherichia coli, ATCC10798; ATCC 10798, 24 h, 100% inhibition; read-out: Minimum inhibitory concentration (MIC) E.c", "procedure": "(§1) The microbial strains used in this study were Escherichia coli (ATCC 10798), Salmonella typhimurium (ATCC14028), Methicillin resistant Staphylococcus aureus (MRSA, Clinical isolate), Bacillus cereus (Toxigenic strain TS), and Candida albicans (ATCC 90028). Bacterial strains were stocked onto nutrient agar slant at 4 °C, and Candida albicans was stocked onto malt agar slant at 4 °C.\n(§2) The microtiter plate dilution method was used to determine the MIC (minimum inhibitory concentration) of compounds under study. Sterile 96-well microplates (Nunc) were used for the assay. Stock compounds were dissolved in DMSO so that the final concentrations in micro wells were less than 1% DMSO and solvent controls were run at these concentrations. Positive controls of penicillin G and tetracycline (Oxoid, Hampshire, UK) were prepared at the following concentrations 2, 4, 8, 16, 31, 62.5, 125, and 250 μg/mL. 1% DMSO was used as a solvent control. Compounds were diluted to twice the desired initial test concentration (250 µg/mL) with Muller Hinton broth (MHB) (Oxoid). All wells, except the first were filled with MHB (50 μL). Compounds (100 μL) were added to the first well and serial two-fold dilutions were made down to the desired minimum concentration (2 μg/mL). An over-night culture of bacteria suspended in MHB was adjusted to turbidity equal to 0.5 McFarland standard. The plates were inoculated with bacterial suspension (50 μL/well) and incubated at 37 °C for 24 h. Then the turbidity was measured using micro-plate reader (Biotek) at 620 nm wavelength. The same procedure was used to determine the antifungal activity of compounds against Candida albicans. The medium used was malt extract broth. The yeast cells were suspended in 0.85% saline, with an optical density equivalent to 0.5 McFarland standard, and diluted 1:100 in malt extract broth to obtain the working concentration. After 24 h incubation with each compound, the turbidity was measured at 530 nm wavelength using a spectrophotometer (Biotek). Percentage inhibition for tested microorganisms was calculated using the following formula:\n(§3) MIC was determined as the lowest concentration of the compound that causes complete inhibition (100%) of each microorganism."}, "Salmonella typhimurium": {"test_system": "Salmonella typhimurium", "experiment": "Microtiter plate dilution MIC, S. typhimurium", "assay_type": "cell-based", "settings": "Salmonella enterica, ATCC 14028 / TYPHIMURIUM; ATCC14028, 24 h, 100% inhibition; read-out: Minimum inhibitory concentration (MIC) S.t", "procedure": "as §1, §2, §3"}, "Candida albicans": {"test_system": "Candida albicans", "experiment": "Microtiter plate dilution MIC, C. albicans", "assay_type": "cell-based", "settings": "Candida albicans, ATCC90028; ATCC 90028, malt extract broth, 24 h, 100% inhibition; read-out: Minimum inhibitory concentration (MIC) C.a", "procedure": "as §1, §2, §3"}, "MCF-7 cells [1]": {"test_system": "MCF-7 cells", "experiment": "MTT antiproliferative activity assay, MCF-7", "assay_type": "cell-based, human", "settings": "Homo sapiens, MCF7; MTT, 48 h treatment, average of three replicates; read-out: IC50 MCF-7", "procedure": "Hep-2 (larynx carcinoma, ATCC: CCL-23), MCF-7 (breast epithelial adenocarcinoma, ATCC: HTB-22), and Vero (African green monkey kidney, ATCC: CCL-81) cell lines were kindly provided by Dr. Mona Hassuneh (Department of Biological Sciences, University of Jordan). Cells were grown in Minimum Essential Medium Eagle (Gibco, Paisley UK) supplemented with 10% heat inactivated fetal bovine serum (Gibco, Paisley UK), 29 μg/mL L-glutamine, and 40 μg/mL gentamicin. Cells were incubated in a humidified atmosphere of 5% CO2 at 37 °C.\nThe antiproliferative activity of Inula viscosa compounds was measured using the MTT (3-(4,5-dimethylthiazol-2-yl)-2,5-diphenyltetrazolium bromide) assay (Promega, Madison, WI, USA). The assay detects the reduction of MTT by mitochondrial dehydrogenase to blue formazan product, which reflects the normal function of mitochondria and cell viability. Exponentially growing cells were washed and seeded at 17,000 cells/well for Hep-2 cell line and 11,000 cells/ well for MCF-7 cell line (in 200 μL of growth medium) in 96 well microplates (Nunc, Roskilde, Denmark). After 24 h incubation, a partial monolayer was formed then the media was removed and 200 μL of the medium containing the compound (initially dissolved in DMSO) were added and re-incubated for 48 h. Then 100 μL of the medium were aspirated and 15 μL of the MTT solution were added to the remaining medium (100 μL) in each well. After 4 h contact with the MTT solution, blue crystals were formed. One hundred μL of the stop solution were added and incubated further for 1 h.\nReduced MTT was assayed at 550 nm using a microplate reader (Biotek, Winooski, VT, USA). Control groups received the same amount of DMSO (0.1%).Untreated cells were used as a negative control while, cells treated with vincristine sulfate were used as a positive control. Eight concentrations (150, 100, 50, 20, 10, 5, 2, and 1 μg/mL) were prepared from each compound and tested against the three cell lines. IC50 values were calculated as the concentrations that show 50% inhibition of proliferation on any tested cell line. Stock solutions of the compounds were dissolved in (DMSO) then diluted with the medium and sterilized using 0.2 μm membrane filters. The toxicity of DMSO was determined and the final dilution of compounds used for treating the cells contained not more than 0.1% (non toxic concentration) DMSO. IC50 values were reported as the average of three replicates. The antiproliferative effect of the tested compounds was determined by comparing the optical density of the treated cells against the optical density of the control (cells treated with media containing 0.1% DMSO)."}, "MCF-7 cells [2]": {"test_system": "MCF-7 cells", "experiment": "TUNEL colorimetric apoptosis assay", "assay_type": "cell-based, human", "settings": "15 µg/mL, 28 h, compared with untreated cells", "procedure": "Apoptosis was detected using terminal deoxynucleotidyl transferase (TdT) mediated-16-deoxyuridine triphosphate (dUTP) Nick-End Labelling (TUNEL) system (Promega, Madison, WI, USA). MCF-7 cells cultured in 24 well plates were treated with 15 µg/mL of either 3-O-methylquercetin or 3,3′-di-O-methylquercetin for 28 h. The assay was conducted according to the manufacturer's instructions. Briefly, treated cells were fixed using 10% formalin followed by washing with phosphate buffer saline (PBS). Cells were then permeabilized using 0.2% triton X-100. Biotinylated dUTP in rTdT reaction mixture was added to label the fragmented DNA at 37 °C for one hour, followed by blocking endogenous peroxidases using 0.3% hydrogen peroxide. Streptavidin HRP (1:500 in PBS) was added and incubated at room temperature for 30 min. Finally, hydrogen peroxide and chromagen diaminobenzidine were used to visualize nuclei with fragmented DNAs under the light microscope (Novex, Arnhem, Holland). Cells treated with 40 nM vincristine sulfate were used as a positive control while untreated cells were used as a negative control."}}}
{"smiles": "COc1cc(-c2oc3cc(O)cc(O)c3c(=O)c2OC)ccc1O", "note": "[3,3′-di-O-Methylquercetin]", "values": [{"measurement": "MIC", "setting": "Escherichia coli", "result": "> 250", "unit": "µg/mL"}, {"measurement": "MIC", "setting": "Salmonella typhimurium", "result": 125, "unit": "µg/mL"}, {"measurement": "MIC", "setting": "Candida albicans", "result": 250, "unit": "µg/mL"}, {"measurement": "IC50", "setting": "MCF-7 cells [1]", "result": "10.1 ± 1.15", "unit": "µg/mL"}, {"measurement": "Apoptosis induction (DNA fragmentation, TUNEL)", "setting": "MCF-7 cells [2]", "result": "increase in the number of apoptotic cells with fragmented DNA"}]}
